Test results reported in ChEMBL document CHEMBL3885861, “Open TG-GATES”.

Species on record: Rattus norvegicus
Experiment: Open TG-GATES - Regimen: Single
Format: toxicity, organism-based, Sprague-Dawley
Parameters: regimen Single, gender Male, age 6 weeks
Conditions: in vivo, po, 0 mg/kg, route gavage, dose level Control; for Bas / Eos / Fbg / Hb / Ht / Lym / MCHC / MCV / Mono / PT / Plat / RBC / WBC / APTT: tissue Blood; for KIDNEY_L / KIDNEY_R / KIDNEY_TOTAL: tissue Kidney; for LIVER: tissue Liver; for ALP / ALT / AST / CRE / Ca / Cl / DBIL / GLC / K / LDH / Na / PL / RALB / TBIL / TC / TG / TP / gamma-GTP: tissue Plasma

COc1ccc([C@@H]2Sc3ccccc3N(CCN(C)C)C(=O)[C@@H]2OC(C)=O)cc1 [DILTIAZEM]
TERMINAL_BW (3 h): 181.4 g | Bas (3 h): 0% | Eos (3 h): 0.8% | Fbg (3 h): 269 mg/dL | Hb (3 h): 13 g/dL | Ht (3 h): 40.2% | Lym (3 h): 76.8% | MCHC (3 h): 32.3% | MCV (3 h): 67 fL | Mono (3 h): 3.4% | PT (3 h): 14.3 s | Plat (3 h): 127.1 x10_4/uL | RBC (3 h): 600.6 x10_4/ul | WBC (3 h): 84.6 x10_2/uL | KIDNEY_L (3 h): 0.9 g | KIDNEY_R (3 h): 0.9 g | KIDNEY_TOTAL (3 h): 1.8 g | LIVER (3 h): 8.3 g | ALP (3 h): 1273 IU/L | ALT (3 h): 43.2 IU/L | AST (3 h): 75.4 IU/L | CRE (3 h): 0.2 mg/dL | Ca (3 h): 10.9 mg/dL | Cl (3 h): 106.8 meq/L | DBIL (3 h): 0.01 mg/dL | GLC (3 h): 178.4 mg/dL | K (3 h): 4.4 meq/L | LDH (3 h): 79.2 IU/L | Na (3 h): 142 meq/L | PL (3 h): 141 mg/dL | RALB (3 h): 2.5 g/dL | TBIL (3 h): 0.04 mg/dL | TC (3 h): 83.2 mg/dL | TG (3 h): 38.4 mg/dL | TP (3 h): 5.1 g/dL | gamma-GTP (3 h): 1 IU/L | TERMINAL_BW (6 h): 181.1 g | APTT (6 h): 18.2 s | Bas (6 h): 0% | Eos (6 h): 0.4% | Fbg (6 h): 280 mg/dL | Hb (6 h): 13.3 g/dL | Ht (6 h): 40.7% | Lym (6 h): 78% | MCHC (6 h): 32.6% | MCV (6 h): 66.8 fL | Mono (6 h): 2.6% | PT (6 h): 14.5 s | Plat (6 h): 116.6 x10_4/uL | RBC (6 h): 609.6 x10_4/ul | WBC (6 h): 77 x10_2/uL | KIDNEY_L (6 h): 0.8 g | KIDNEY_R (6 h): 0.8 g | KIDNEY_TOTAL (6 h): 1.7 g | LIVER (6 h): 7.8 g | ALP (6 h): 1331.4 IU/L | ALT (6 h): 40.2 IU/L | AST (6 h): 69.4 IU/L | CRE (6 h): 0.2 mg/dL | Ca (6 h): 10.8 mg/dL | Cl (6 h): 106.6 meq/L | DBIL (6 h): 0.006 mg/dL | GLC (6 h): 171.6 mg/dL | K (6 h): 4.1 meq/L | LDH (6 h): 61.4 IU/L | Na (6 h): 143 meq/L | PL (6 h): 129.8 mg/dL | RALB (6 h): 2.5 g/dL | TBIL (6 h): 0.038 mg/dL | TC (6 h): 71.8 mg/dL | TG (6 h): 43.2 mg/dL | TP (6 h): 5.1 g/dL | gamma-GTP (6 h): 1 IU/L | TERMINAL_BW (9 h): 180.5 g | APTT (9 h): 17 s | Bas (9 h): 0% | Eos (9 h): 0.6% | Fbg (9 h): 313 mg/dL | Hb (9 h): 13.3 g/dL | Ht (9 h): 41.1% | Lym (9 h): 75.4% | MCHC (9 h): 32.3% | MCV (9 h): 66.5 fL | Mono (9 h): 2.4% | PT (9 h): 14.5 s | Plat (9 h): 126.8 x10_4/uL | RBC (9 h): 619.2 x10_4/ul | WBC (9 h): 78.7 x10_2/uL | KIDNEY_L (9 h): 0.8 g | KIDNEY_R (9 h): 0.8 g | KIDNEY_TOTAL (9 h): 1.7 g | LIVER (9 h): 6.9 g | ALP (9 h): 1820.2 IU/L | ALT (9 h): 43 IU/L | AST (9 h): 75.4 IU/L | CRE (9 h): 0.2 mg/dL | Ca (9 h): 10.6 mg/dL | Cl (9 h): 107 meq/L | DBIL (9 h): 0.01 mg/dL | GLC (9 h): 178 mg/dL | K (9 h): 4.1 meq/L | LDH (9 h): 71.8 IU/L | Na (9 h): 142.2 meq/L | PL (9 h): 119.4 mg/dL | RALB (9 h): 2.5 g/dL | TBIL (9 h): 0.038 mg/dL | TC (9 h): 67.2 mg/dL | TG (9 h): 28.4 mg/dL | TP (9 h): 5.2 g/dL | gamma-GTP (9 h): 1.8 IU/L | TERMINAL_BW (24 h): 198.1 g | Bas (24 h): 0% | Eos (24 h): 1% | Fbg (24 h): 259.8 mg/dL | Hb (24 h): 13 g/dL | Ht (24 h): 39.6% | Lym (24 h): 74.6% | MCHC (24 h): 32.9% | MCV (24 h): 64.9 fL | Mono (24 h): 3.4% | PT (24 h): 14.8 s | Plat (24 h): 119.2 x10_4/uL | RBC (24 h): 610.2 x10_4/ul | WBC (24 h): 90.7 x10_2/uL | KIDNEY_L (24 h): 0.9 g | KIDNEY_R (24 h): 0.9 g | KIDNEY_TOTAL (24 h): 1.8 g | LIVER (24 h): 8.9 g | ALT (24 h): 48 IU/L | AST (24 h): 77 IU/L | CRE (24 h): 0.2 mg/dL | Ca (24 h): 11.1 mg/dL | Cl (24 h): 107 meq/L | DBIL (24 h): 0.014 mg/dL | GLC (24 h): 187.4 mg/dL | K (24 h): 4.2 meq/L | LDH (24 h): 88.4 IU/L | Na (24 h): 143.8 meq/L | PL (24 h): 148.6 mg/dL | RALB (24 h): 2.6 g/dL | TBIL (24 h): 0.03 mg/dL | TC (24 h): 76.6 mg/dL
